Assay results: patent publication US10228378B2, “Diagnostic and therapeutic methods and products related to anxiety disorders” (The University of Vermont and State Agricultural College, priority 2011, dated 2019)
Values joined by “and” are separate entries in the source; they are usually repeats but may differ in a detail not shown here. Equal entries are not always repeated. “Also recorded” adds a separate entry of the source. No end group written: not given here.

What was measured:
ADCYAP1 transcripts = test: Quantitative PCR of ADCYAP1 transcripts in BNST of ovarectomized female rats after estradiol implants; assay type: in vivo, rat; conditions: OVX female rats, 21-day continuous release pellets, vs control implants
From the text: (§1) To establish the relationship between PACAP/PAC1 receptors and estrogen in a validated model of sex hormone regulation, estrogen-induced changes in ADCYAP1 and ADCYAP1R1 transcripts in the bed nucleus of stria terminalis (BNST) in female rats was examined. The BNST is a component of the extended amygdala that is subject to significant gonadal hormonal control. In rodents, it is critical for emotional behavior, mediating stress responses and the light-enhanced startle response. Quantitative PCR was performed (Hammack et al., Psychoneuroendocrinology 34, 833-43 (2009); Girard et al., J Neurochem 99(2): 499-513 (2006); Braas et al., Peptides September 28(9):1856-70 (2007)). Rats were implanted with 21-day continuous release pellets for delivery of estrogen. After rat euthanasia, the different brain regions were quickly dissected and frozen on dry ice. The tissues were homogenized in Stat-60 total RNA/mRNA isolation reagent (Tel-Test “B”, Friendswood, Tex.). […] Real-time quantitative PCR methods and oligonucleotide primers were exactly as described previously. The melting profiles for amplified DNA fragments were performed to verify unique product amplification in the quantitative PCR assays. […]

ADCYAP1R1 transcripts = test: Quantitative PCR of ADCYAP1R1 transcripts in BNST of ovarectomized female rats after estradiol implants; assay type: in vivo, rat; conditions: OVX female rats, 21-day continuous release pellets, vs control implants
From the text: as §1

Sprague-Dawley rats [1] = test: Elevated plus maze after acute BNST PACAP38 infusion; assay type: in vivo, rat; conditions: BNST infusion 1 μg/0.5 μl vs vehicle
From the text: For acute infusion studies, rats were anesthetized with isoflurane vapor and secured in a stereotaxic apparatus. After skin incision, the skull was exposed and four screws were inserted to provide skullcap stability. Two stainless steel cannulae (26 gauge, Plastics One, Roanoke, Va.) were lowered at a 20 degree angle just above the anterolateral bed nucleus of the stria terminalis (BNST), from bregma in mm; AP=−0.3, ML=±3.8 and DV=−5.3 from the surface of the dura. A skullcap was created with dental cement to hold the cannulae in place. […]
(§2) A plus maze of black painted wood and elevated 74 cm from the floor consisted of two opposing open and two opposing closed arms (each arm 60 cm long and 9 cm wide), which extended perpendicularly from a central square platform (9×9 cm). […] The sessions were captured digitally, and the time spent in the open and closed arms and the total number of crosses into the open arms were scored. […]
To further characterize the behavioral consequences of BNST PACAP38 infusion, rats were implanted with bilateral cannulae targeted at the BNST. […] Consistent with an anxiogenic effect of BNST PACAP on baseline acoustic startle responding, BNST PACAP38 infusion was anxiogenic on the elevated-plus maze as measured by open arm time (FIG. 12A, df=8, t=3.3, p=0.01).

[2] = Body weight after acute BNST PACAP38 infusion; assay type: in vivo, rat; conditions: 24 hours after BNST infusion
From the text: For acute infusion studies, rats were anesthetized with isoflurane vapor and secured in a stereotaxic apparatus. After skin incision, the skull was exposed and four screws were inserted to provide skullcap stability. Two stainless steel cannulae (26 gauge, Plastics One, Roanoke, Va.) were lowered at a 20 degree angle just above the anterolateral bed nucleus of the stria terminalis (BNST), from bregma in mm; AP=−0.3, ML=±3.8 and DV=−5.3 from the surface of the dura. A skullcap was created with dental cement to hold the cannulae in place. One week after cannulation, the rats were acutely infused bilaterally into the BNST with PACAP38 (American Peptide Co., Sunnyvale, Calif.; 0.1, 0.5 or 1 μg in 0.5 μl) or saline/bovine serum albumin (BSA) vehicle; the infusion cannulae were left in place for 1 min before removal.
To further characterize the behavioral consequences of BNST PACAP38 infusion, rats were implanted with bilateral cannulae targeted at the BNST. One week following implantation, rats received BNST infusions of PACAP38 (1 μg/0.5 μl) or vehicle, and were tested for anxiety-like responses. Consistent with an anxiogenic effect of BNST PACAP on baseline acoustic startle responding, BNST PACAP38 infusion was anxiogenic on the elevated-plus maze as measured by open arm time (FIG. 12A, df=8, t=3.3, p=0.01).

Sprague-Dawley rats [3] = test: Elevated plus-maze after chronic BNST PACAP(6-38) infusion during repeated variate stress; assay type: in vivo, rat
Protocol: Similar procedures were followed for chronic infusions. Once the BNST cannulae (Plastics One, Roanoke, Va.; No. 328OP/SPC) and skullcap were in place, the cannulae were attached to a single bifurcation connector (Plastics One, Roanoke, Va.; No. 21y) using 3 mm catheter tubing (Alzet, Cupertino, Calif.: OC 1.14 mm, ID 0.69 mm). The bifurcation connector was attached to 6.7 cm of catheter tubing attached to a mini-osmotic pump (Alzet, Cupertino, Calif.; No. 2002, 200 μl volume, 0.5 μl/h) containing either antagonist PACAP(6-38) (American Peptide Co., Sunnyvale, Calif.; 75 μM) or vehicle (0.05% BSA in saline). Long term PACAP(6-38) stability at 37° C. was assessed separately by daily aliquot removal for intact and amidated peptide radioimmunoassays. Peptide loss was 4%/day; final minipump PACAP(6-38) concentration at the end of the study was approximately 40 μM. […] The rats were returned to their home cages for 6 day postsurgical recovery; all rats were monitored for food/water intake and weighed daily. […]
as §2

Sprague-Dawley rats [4] = test: Novel object exploration test after chronic BNST PACAP(6-38) infusion during repeated variate stress; assay type: in vivo, rat; conditions: for effect on stress induced anxiety-related responses, novel object test: chronic BNST infusion, stressed rats
Protocol: (§3) Similar procedures were followed for chronic infusions. Once the BNST cannulae (Plastics One, Roanoke, Va.; No. 328OP/SPC) and skullcap were in place, the cannulae were attached to a single bifurcation connector (Plastics One, Roanoke, Va.; No. 21y) using 3 mm catheter tubing (Alzet, Cupertino, Calif.: OC 1.14 mm, ID 0.69 mm). The bifurcation connector was attached to 6.7 cm of catheter tubing attached to a mini-osmotic pump (Alzet, Cupertino, Calif.; No. 2002, 200 μl volume, 0.5 μl/h) containing either antagonist PACAP(6-38) (American Peptide Co., Sunnyvale, Calif.; 75 μM) or vehicle (0.05% BSA in saline). Long term PACAP(6-38) stability at 37° C. was assessed separately by daily aliquot removal for intact and amidated peptide radioimmunoassays. Peptide loss was 4%/day; final minipump PACAP(6-38) concentration at the end of the study was approximately 40 μM. All catheters were filled with vehicle to delay antagonist infusion into the BNST before the repeated variate stress procedure. The minipumps were primed according to manufacturer's instructions and secured subcutaneously in the interscapular space. The rats were returned to their home cages for 6 day postsurgical recovery; all rats were monitored for food/water intake and weighed daily.
Following acclimation or postsurgery recovery, each animal was randomly assigned to either a control or chronically stressed group. Control group animals remained in their home cages until euthanasia. […]
To determine whether BNST PACAP receptor signaling mediates the behavioral consequences of repeated stress, osmotic minipumps were attached to bilateral indwelling cannulae to chronically infuse the BNST with PACAP(6-38), a PAC1 receptor antagonist, during the seven day repeated variate stress procedure (see above, FIG. 13A). Animal weight and food intake were monitored daily during the entire duration of the experiment, and the animals were evaluated on the elevated plus-maze and novel-object exploration tests 24-48 hours after the last stressor exposure. […]

[5] = Body weight during chronic BNST PACAP(6-38) infusion and repeated variate stress; assay type: in vivo, rat
Protocol: as §3, with “The minipumps were primed according to manufacturer's instructions and secured subcutaneously in the interscapular space.” left out, “daily. […]” for “daily.”
Weight data were analyzed using a 2×2×7 mixed ANOVA with stress and antagonist treatment as between subjects variables and percent weight change during the stress period as within subjects variables. […]

[6] = Long term PACAP(6-38) stability at 37° C. by radioimmunoassay; assay type: physicochemical
Protocol: as §3

[7] = chronic BNST infusion by minipump (75 μM, 0.5 μl/h), stressed and non-stressed rats

In the case of `C[C@]12CC[C@@H]3c4ccc(O)cc4CC[C@H]3[C@@H]1CC[C@@H]2O` [estradiol], the “increase of ADCYAP1 transcripts, dorsal BNST” value (ADCYAP1 transcripts) is reported as 2.1 fold, the “increase of ADCYAP1 transcripts, ventral BNST” value (ADCYAP1 transcripts) is reported as 3.4 fold and the “increase of ADCYAP1R1 mRNA, dorsal BNST” value (ADCYAP1R1 transcripts) is reported as 1.5 fold and 1.6 fold.

In the case of “PACAP38: 38-amino acid peptide form of PACAP (American Peptide Co.) (HSDGIFTDSYSRYRKQMAVKKYLAAVLGKRYKQRVKNK; ends and bridges not checked)”, the “anxiety-like behavior on elevated-plus maze as measured by open arm time” value (Sprague-Dawley rats [1]) is reported as “anxiogenic; also recorded: decreased open arm times”, the “locomotor activity as measured by total number of arm entries” value (Sprague-Dawley rats [1]) is reported as “not affected; also recorded: not changed” and the “weight loss compared to vehicle-infused rats” value [2] is reported as “significantly more weight loss”. The weight loss ([2]; compared to vehicle controls) was “approximately 8 % of body weight”.

With “Phe-Thr-Asp-Ser-Tyr-Ser-Arg-Tyr-Arg-Lys-Gln-Met-Ala-Val-Lys-Lys-Tyr-Leu-Ala-Ala-Val-Leu-Gly-Lys-Arg-Tyr-Lys-Gln-Arg-Val-Lys-Asn-Lys (FTDSYSRYRKQMAVKKYLAAVLGKRYKQRVKNK) [PACAP(6-38)]” the “anxiety-like behavior on elevated plus maze” value (Sprague-Dawley rats [3]; [7]) was “anxiolytic”, the “effect on stress induced anxiety-related responses, elevated plus-maze” value (Sprague-Dawley rats [3]; chronic BNST infusion, stressed rats) was “attenuated the stress induced anxiety-related responses” and the “anxiety-like behavior on novel object test” value (Sprague-Dawley rats [4]; [7]) was “anxiolytic”. For the same compound, the “effect on stress induced anxiety-related responses, novel object test” value (Sprague-Dawley rats [4]) was “reverse the anxiogenic effect of stress”, the “effect on stress induced anxiety-related responses, novel object test” value (Sprague-Dawley rats [4]; listed as PACAP receptor antagonist) was “attenuated the stress induced anxiety-related responses” and the “effect on body weight, non-stressed rats” value ([5]; chronic BNST infusion, no stress) was “no apparent effects; also recorded: gained weight steadily”. The “effect on weight gain, stressed rats” value ([5]; continuous BNST infusion during seven day repeated variate stress) was “blocked the stress-induced changes in weight gain; also recorded: gained weight comparable to controls”, the Peptide loss ([6]; intact and amidated peptide radioimmunoassays) was 4 %/day and the “final minipump concentration at the end of the study” value ([6]; start 75 μM) was “approximately 40 μM”.
